Biological target: JNK3 (Homo sapiens, UniProt P53779)
Experiment: JNK3 SPA assay
Assay type: biochemical
Conditions: 3.33 μM ATP, GST-c-Jun substrate; read-out: IC50 against JNK3
Method: JNK1, JNK2, JNK3—SPA Assay
JNK1, JNK2, JNK3—SPA Assay • 1. Compound is dissolved in DMSO to a convenient concentration and this is diluted in 10% DMSO to a five times concentrate of the desired starting concentration (frequently 1:100). • 2. 10 μl of 500 mM EDTA is added to alternative wells of the Opti-plate row, which will receive kinase reaction plus DMSO. This creates the negative control. • 3. For the JNK2 and JNK3 assay, compounds are prepared in six 2-fold dilutions with water and each concentration is tested in duplicate. For the JNK1 assay compounds are prepared in four 5-fold dilutions with water which are tested in triplicate. Controls are treated identically. • 4. 20 μl per well of each compound concentration is transferred to an Opti-plate, in duplicate. • 5. 30 μl (JNK2/3 SPA) or 50 μl (JNK1 SPA) of substrate solution (25 mM HEPES pH 7.5, 10 mM magnesium acetate with 3.33 μM ATP (JNK2/3) or 2 μM ATP (JNK1), approximately 7.5 kBq [γ-^33P] ATP, GST-c-Jun, in water) is added to each well. • 6. 50 μl (JNK2/3 SPA) or 30 μl (JNK1 SPA) of kinase solution (JNK in 25 mM HEPES pH 7.5, 10 mM Mg Acetate) is added to each well.
• 7. The plate is incubated for 30 minutes at room temperature. • 8. 100 μl of bead/stop solution is added to each well (5 mg/ml glutathione-PVT-SPA beads, 40 mM ATP in PBS). • 9. Plates are sealed and incubated for 30 minutes at room temperature, centrifuged for 10 minutes at 2500 g and counted. • 10. The IC50 values are calculated as the concentration of the compound being tested at which the phosphorylation of c-Jun is decreased to 50% of the control value.

Sequence of JNK3 (P53779 whole entry, species assumed): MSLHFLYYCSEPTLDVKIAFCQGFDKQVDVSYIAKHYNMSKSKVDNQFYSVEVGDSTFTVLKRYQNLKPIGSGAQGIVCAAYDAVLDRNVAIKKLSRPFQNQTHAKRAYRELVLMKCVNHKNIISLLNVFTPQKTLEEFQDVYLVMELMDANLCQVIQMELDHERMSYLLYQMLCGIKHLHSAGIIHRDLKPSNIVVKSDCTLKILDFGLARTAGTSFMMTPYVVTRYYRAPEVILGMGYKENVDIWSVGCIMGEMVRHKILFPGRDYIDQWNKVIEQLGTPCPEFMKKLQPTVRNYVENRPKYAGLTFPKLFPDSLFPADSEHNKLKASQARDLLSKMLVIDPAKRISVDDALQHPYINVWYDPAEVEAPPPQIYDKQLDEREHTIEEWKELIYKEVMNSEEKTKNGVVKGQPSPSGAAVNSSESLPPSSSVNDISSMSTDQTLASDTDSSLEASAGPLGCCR

Row | Structure (SMILES) | IC50 [nM]
1 | Cn1cc(-c2c[nH]c3ncc([C@H]4CC[C@H](N5CC[C@H](F)C5)CC4)cc23)cn1 [Compound I-50, 5-((1S,4r)-4-((S)-3-fluoropyrrolidin-1-yl)cyclohexyl)-3-(1-methyl-1H-pyrazol-4-yl)-1H-pyrrolo[2,3-b]pyridine] | 214
2 | Cn1cc(-c2c[nH]c3ncc([C@H]4CC[C@H](N5CC[C@@H](F)C5)CC4)cc23)cn1 [Compound I-54, 5-((1R,4r)-4-((R)-3-fluoropyrrolidin-1-yl)cyclohexyl)-3-(1-methyl-1H-pyrazol-4-yl)-1H-pyrrolo[2,3-b]pyridine] | 174
3 | c1nn(CCN2CCOCC2)cc1-c1c[nH]c2ncc([C@H]3CC[C@@H](N4CCOCC4)CC3)cc12 [Compound I-58, 4-(2-(4-(5-((1s,4s)-4-morpholinocyclohexyl)-1H-pyrrolo[2,3-b]pyridin-3-yl)-1H-pyrazol-1-yl)ethyl)morpholine] | > 500
4 | CN(C)[C@H]1CC[C@H](c2cnc3[nH]cc(-c4cnn(CCN5CCOCC5)c4)c3c2)CC1 [Compound I-60, (1r,4r)-N,N-dimethyl-4-(3-(1-(2-morpholinoethyl)-1H-pyrazol-4-yl)-1H-pyrrolo[2,3-b]pyridin-5-yl)cyclohexanamine] | > 500
5 | C1=C(c2cnc3[nH]cc(-c4cnn(CCN5CCOCC5)c4)c3c2)CCC1 [Compound I-62, 5-Cyclopent-1-enyl-3-[1-(2-morpholin-4-yl-ethyl)-1H-pyrazol-4-yl]-1H-pyrrolo[2,3-b]pyridine] | 105
6 | c1nn(CCN2CCOCC2)cc1-c1c[nH]c2ncc(C3CCCC3)cc12 [Compound I-64, 5-Cyclopentyl-3-[1-(2-morpholin-4-yl-ethyl)-1H-pyrazol-4-yl]-1H-pyrrolo[2,3-b]pyridine] | 158
7 | CN1CCN([C@H]2CC[C@H](c3cnc4[nH]cc(-c5cnn(C(F)(F)F)c5)c4c3)CC2)CC1 [Compound I-66, 5-((1r,4r)-4-(4-methylpiperazin-1-yl)cyclohexyl)-3-(1-(trifluoromethyl)-1H-pyrazol-4-yl)-1H-pyrrolo[2,3-b]pyridine] | 219
8 | CN1CCN([C@H]2CC[C@@H](c3cnc4[nH]cc(-c5cnn(C(F)(F)F)c5)c4c3)CC2)CC1 [Compound I-67, 5-((1s,4s)-4-(4-methylpiperazin-1-yl)cyclohexyl)-3-(1-(trifluoromethyl)-1H-pyrazol-4-yl)-1H-pyrrolo[2,3-b]pyridine] | 178
9 | Cn1cc(-c2c[nH]c3ncc(C4=CCC(N5CCOCC5)CC4)cc23)cn1 (stereo not shown) [Compound I-75, 3-(1-Methyl-1H-pyrazol-4-yl)-5-(4-morpholin-4-yl-cyclohex-1-enyl)-1H-pyrrolo[2,3-b]pyridine] | 89
10 | Cn1cc(-c2c[nH]c3ncc([C@H]4CC[C@H](C(=O)O)CC4)cc23)cn1 [Compound I-76, (1r,4r)-4-(3-(1-methyl-1H-pyrazol-4-yl)-1H-pyrrolo[2,3-b]pyridin-5-yl)cyclohexanecarboxylic acid] | 251
11 | c1n[nH]cc1-c1c[nH]c2ncc([C@H]3CC[C@@H](N4CCOCC4)CC3)cc12 [Compound I-78, 4-((1s,4s)-4-(3-(1H-pyrazol-4-yl)-1H-pyrrolo[2,3-b]pyridin-5-yl)cyclohexyl)morpholine] | 288
12 | c1n[nH]cc1-c1c[nH]c2ncc([C@H]3CC[C@H](N4CCOCC4)CC3)cc12 [Compound I-79, 4-((1r,4r)-4-(3-(1H-pyrazol-4-yl)-1H-pyrrolo[2,3-b]pyridin-5-yl)cyclohexyl)morpholine] | 117
13 | FC(F)n1cc(-c2c[nH]c3ncc([C@H]4CC[C@H](N5CCOCC5)CC4)cc23)cn1 [Compound I-80, 4-((1r,4r)-4-(3-(1-(difluoromethyl)-1H-pyrazol-4-yl)-1H-pyrrolo[2,3-b]pyridin-5-yl)cyclohexyl)morpholine] | 148
14 | Cc1c(-c2c[nH]c3ncc([C@H]4CC[C@@H](N5CCOCC5)CC4)cc23)cnn1C [Compound I-96, 4-((1s,4s)-4-(3-(1,5-dimethyl-1H-pyrazol-4-yl)-1H-pyrrolo[2,3-b]pyridin-5-yl)cyclohexyl)morpholine] | 1700
15 | C[C@H]1COCCN1[C@H]1CC[C@@H](c2cnc3[nH]cc(-c4cnn(C)c4)c3c2)CC1 [Compound I-104, (S)-3-methyl-4-((1s,4R)-4-(3-(1-methyl-1H-pyrazol-4-yl)-1H-pyrrolo[2,3-b]pyridin-5-yl)cyclohexyl)morpholine] | 138
16 | CC(C)N[C@H]1CC[C@H](c2cnc3[nH]cc(-c4cnn(C)c4)c3c2)CC1 [Compound I-105, (1r,4r)-N-isopropyl-4-(3-(1-methyl-1H-pyrazol-4-yl)-1H-pyrrolo[2,3-b]pyridin-5-yl)cyclohexanamine] | 320

The next lines start with the values.

Row | IC50 [nM] | Structure (SMILES)
17 | 151 | Cn1cc(-c2c[nH]c3ncc([C@H]4CC[C@@H](N5CCCCC5)CC4)cc23)cn1 [Compound I-46, 3-(1-methyl-1H-pyrazol-4-yl)-5-((1s,4s)-4-(piperidin-1-yl)cyclohexyl)-1H-pyrrolo[2,3-b]pyridine]
18 | 93 | Cn1cc(-c2c[nH]c3ncc([C@H]4CC[C@H](N5CCC(F)(F)C5)CC4)cc23)cn1 [Compound I-47, 5-((1r,4r)-4-(3,3-difluoropyrrolidin-1-yl)cyclohexyl)-3-(1-methyl-1H-pyrazol-4-yl)-1H-pyrrolo[2,3-b]pyridine]
19 | 182 | Cn1cc(-c2c[nH]c3ncc([C@H]4CC[C@@H](N5CCC(F)(F)C5)CC4)cc23)cn1 [Compound I-48, 5-((1s,4s)-4-(3,3-difluoropyrrolidin-1-yl)cyclohexyl)-3-(1-methyl-1H-pyrazol-4-yl)-1H-pyrrolo[2,3-b]pyridine]
20 | 316 | Cn1cc(-c2c[nH]c3ncc([C@H]4CC[C@@H](N5CC[C@H](F)C5)CC4)cc23)cn1 [Compound I-49, 5-((1R,4s)-4-((S)-3-fluoropyrrolidin-1-yl)cyclohexyl)-3-(1-methyl-1H-pyrazol-4-yl)-1H-pyrrolo[2,3-b]pyridine]
21 | 191 | Cn1cc(-c2c[nH]c3ncc(C4=CC5(CC4)OCCO5)cc23)cn1 [Compound I-51, 3-(1-methyl-1H-pyrazol-4-yl)-5-(1,4-dioxaspiro[4.4]non-6-en-7-yl)-1H-pyrrolo[2,3-b]pyridine]
22 | 251 | CCN(CC)C1CCC(c2cnc3[nH]cc(-c4cnn(C)c4)c3c2)CC1 (stereo not shown) [Compound I-52, N,N-diethyl-4-(3-(1-methyl-1H-pyrazol-4-yl)-1H-pyrrolo[2,3-b]pyridin-5-yl)cyclohexanamine]
23 | 182 | Cn1cc(-c2c[nH]c3ncc([C@H]4CC[C@@H](N5CC[C@@H](F)C5)CC4)cc23)cn1 [Compound I-53, 5-((1S,4s)-4-((R)-3-fluoropyrrolidin-1-yl)cyclohexyl)-3-(1-methyl-1H-pyrazol-4-yl)-1H-pyrrolo[2,3-b]pyridine]
24 | 263 | CCNC1CCC(c2cnc3[nH]cc(-c4cnn(C)c4)c3c2)CC1 (stereo not shown) [Compound I-55, Ethyl-{4-[3-(1-methyl-1H-pyrazol-4-yl)-1H-pyrrolo[2,3-b]pyridin-5-yl]-cyclohexyl}-amine]
25 | 417 | c1nn(CCN2CCOCC2)cc1-c1c[nH]c2ncc([C@H]3CC[C@H](N4CCOCC4)CC3)cc12 [Compound I-57, 4-(2-(4-(5-((1r,4r)-4-morpholinocyclohexyl)-1H-pyrrolo[2,3-b]pyridin-3-yl)-1H-pyrazol-1-yl)ethyl)morpholine]
26 | > 500 | CN(C)[C@H]1CC[C@@H](c2cnc3[nH]cc(-c4cnn(CCN5CCOCC5)c4)c3c2)CC1 [Compound I-59, (1s,4s)-N,N-dimethyl-4-(3-(1-(2-morpholinoethyl)-1H-pyrazol-4-yl)-1H-pyrrolo[2,3-b]pyridin-5-yl)cyclohexanamine]
27 | 468 | COC1(c2cnc3[nH]cc(-c4cnn(C)c4)c3c2)CCCC1 [Compound I-63, 5-(1-methoxycyclopentyl)-3-(1-methyl-1H-pyrazol-4-yl)-1H-pyrrolo[2,3-b]pyridine]
28 | 63 | Cn1cc(-c2c[nH]c3ncc([C@H]4CC[C@H](CO)CC4)cc23)cn1 [Compound I-74, ((1r,4r)-4-(3-(1-methyl-1H-pyrazol-4-yl)-1H-pyrrolo[2,3-b]pyridin-5-yl)cyclohexyl)methanol]
29 | > 500 | Cn1cc(-c2c[nH]c3ncc([C@H]4CC[C@@H](C(=O)O)CC4)cc23)cn1 [Compound I-77, (1s,4s)-4-(3-(1-methyl-1H-pyrazol-4-yl)-1H-pyrrolo[2,3-b]pyridin-5-yl)cyclohexanecarboxylic acid]
30 | 1510 | Cc1c(-c2c[nH]c3ncc([C@H]4CC[C@H](N5CCOCC5)CC4)cc23)cnn1C [Compound I-95, 4-((1r,4r)-4-(3-(1,5-dimethyl-1H-pyrazol-4-yl)-1H-pyrrolo[2,3-b]pyridin-5-yl)cyclohexyl)morpholine]
31 | 263 | C[C@H]1COCCN1[C@H]1CC[C@H](c2cnc3[nH]cc(-c4cnn(C)c4)c3c2)CC1 [Compound I-103, (S)-3-methyl-4-((1r,4S)-4-(3-(1-methyl-1H-pyrazol-4-yl)-1H-pyrrolo[2,3-b]pyridin-5-yl)cyclohexyl)morpholine]
